Results: US8703712B2, “Targeting cancer stem cells with DR5 agonists” (The UAB Research Foundation, priority 2011, dated 2014)

Columns and labels:
[1] = system: 2LMP and SUM159 ALDH+ tumorsphere cells; test: Secondary tumorsphere formation; assay type: cell-based, human; details: 2LMP and SUM159 sphere cells; TRAIL and 2E12 at concentrations equimolar to TRA-8
Experimental: Bars are normalized relative to untreated control and represent quadruplicate runs. Error bars denote standard deviation (SD).
(§1) • Drugs and Antibodies. Adriamycin and Taxol were purchased from Sigma Aldrich Chemical Co. (St. Louis, Mo.) and prepared as 10 mM stock solutions in distilled H2O or DMSO, respectively. Purified TRA-8 (IgG1) mAb was prepared as described previously (Ichikawa et al., Nat. Med. 7:954-60 (2001) and WO01/83560). Isotype-specific IgG1 control antibody was obtained from Southern Biotechnology Associates (Birmingham, Ala.). Anti-DR4 mAb 2E12 (IgG1, k) was described previously (WO03/37913). Super Killer TRAIL™ was purchased from Alexis Biochemicals (Plymouth Meeting, Pa.). Conjugated antibodies APC mouse anti-human CD44, PE-Cy7 rat anti-mouse CD44, and corresponding isotype control antibodies were purchased from BD Pharmingen (San Jose, Calif.). ALDEFLUOR® kit including diethylaminobenzaldehyde (DEAB) negative control was obtained from StemCell Technologies (Durham, N.C.). Cleaved caspase-8 rabbit mAb and cleaved caspase-3 rabbit mAb were purchased from Cell Signaling (Billerica, Mass.). Secondary antibodies, Alexa tluor 405 goat anti-rabbit IgG and Alexa fluor 647 goat anti-mouse IgG1 were purchased from Invitrogen (Carlsbad, Calif.). • Cells and Cell Culture. The 2LMP subclone of the human breast cancer cell line MDA-MB-231 was maintained in improved MEM supplemented with 10% FBS (Hyclone; Logan, Utah). […] BCSC markers were analyzed on attached bulk cell populations. […] Samples were sorted on a Becton-Dickinson-FACSAriaII™ or analyzed on Becton-Dickinson-LSRII™ flow cytometer (Chicago, Ill.). Data were evaluated using FlowJo software (FlowJo; Ashland, Oreg.). • DR5 Expression and Functional Caspase Activation. […] Samples were analyzed by flow cytometry for DR5 expression on the ALDH^+/CD44^+/CD24^− subpopulation. […]

[2] = system: SUM159 ALDH+ cells; test: Ex vivo treatment of sorted BCSC and tumor implantation; assay type: in vivo, NOD/SCID mice; details: cells treated ex vivo with 500 nM Adriamycin for 3 hours, implanted into mammary fat pad
Experimental: (§2) FIGS. 14A and 14B are graphs showing ex vivo treatment of sorted BCSCs inhibited tumorigenesis and progression in NOD/SCID mice. The graphs represent average tumor size (product of two diameters).
as §1, with “Calif.).” for “Calif.). ALDEFLUOR® kit including diethylaminobenzaldehyde (DEAB) negative control was obtained from StemCell Technologies (Durham, N.C.). Cleaved caspase-8 rabbit mAb and cleaved caspase-3 rabbit mAb were purchased from Cell Signaling (Billerica, Mass.). Secondary antibodies, Alexa tluor 405 goat anti-rabbit IgG and Alexa fluor 647 goat anti-mouse IgG1 were purchased from Invitrogen (Carlsbad, Calif.). • Cells and Cell Culture. The 2LMP subclone of the human breast cancer cell line MDA-MB-231 was maintained in improved MEM supplemented with 10% FBS (Hyclone; Logan, Utah).”

[3] = system: 2LMP ALDH+ cells; test: as above; assay type: in vivo, NOD/SCID mice; details: cells treated ex vivo with 500 nM Adriamycin for 3 hours, 4×10^4 cells into mammary fat pad; by day 51
Experimental: as §2
as §1, with “Calif.).” for “Calif.). ALDEFLUOR® kit including diethylaminobenzaldehyde (DEAB) negative control was obtained from StemCell Technologies (Durham, N.C.). Cleaved caspase-8 rabbit mAb and cleaved caspase-3 rabbit mAb were purchased from Cell Signaling (Billerica, Mass.). Secondary antibodies, Alexa tluor 405 goat anti-rabbit IgG and Alexa fluor 647 goat anti-mouse IgG1 were purchased from Invitrogen (Carlsbad, Calif.). • Cells and Cell Culture. The 2LMP subclone of the human breast cancer cell line MDA-MB-231 was maintained in improved MEM supplemented with 10% FBS (Hyclone; Logan, Utah).”

[4] = system: 2LMP ALDH+ cells; test: Annexin V-propidium iodide apoptosis assay (flow cytometry); assay type: cell-based, human; details: 5 μM MRK003
Experimental: 2LMP ALDH^+ cells were sorted by flow cytometry and treated with MRK003 GSI (or DMSO) for 24 hours followed by TRA-8 (or media) for an additional 24 hours before measuring ATP levels. […] Similar results were found in studies using CSC-enriched cell populations derived from sphere cultures. The results were confirmed using annexin V-propidium iodide assays and flow cytometry to measure apoptosis.

Molecule: COc1cccc2c1C(=O)c1c(O)c3c(c(O)c1C2=O)C[C@@](O)(C(=O)CO)C[C@@H]3O[C@H]1C[C@H](N)[C@H](O)[C@H](C)O1 [Adriamycin]
- inhibition of secondary tumorsphere formation (in words) [1]: did not completely inhibit
- mice that developed tumors [2]: zero out of five
- mice that developed tumors [3]: Five out of five

Molecule: O=S1(=O)N[C@@]2(CN1CC(F)(F)F)[C@@H]1CC[C@H]2Cc2ccc(/C=C/CN3CCC(C(F)(F)F)CC3)cc2C1 [MRK003]
- annexin-V-positive [4]: 36%

Molecule: CC(=O)O[C@H]1C(=O)[C@@]2(C)[C@H]([C@H](OC(=O)c3ccccc3)[C@]3(O)C[C@H](OC(=O)[C@H](O)[C@@H](NC(=O)c4ccccc4)c4ccccc4)C(C)=C1C3(C)C)[C@]1(OC(C)=O)CO[C@@H]1C[C@@H]2O [Taxol]
- inhibition of secondary tumorsphere formation (in words) [1]: did not completely inhibit

B1: TRAIL: Super Killer TRAIL™ purchased from Alexis Biochemicals; death receptor ligand (protein, UniProt P50591 39-281, looked up)
extracellular domain: TNELKQMQDKYSKSGIACFLKEDDSYWDPNDEESMNSPCWQVKWQLRQLVRKMILRTSEETISTVQEKQQNISPLVRERGPQRVAAHITGTRGRSNTLSSPNSKNEKALGRKINSWESSRSGHSFLSNLHLRNGELVIHEKGFYYIYSQTYFRFQEEIKENTKNDKQMVQYIYKYTSYPDPILLMKSARNSCWSKDAEYGLYSIYQGGIFELKENDRIFVSVTNEHLIDMDHEASFFGAFLVG
modifications: extracellular domain Super Killer TRAIL engineered soluble form
notes: Super Killer TRAIL™ purchased from Alexis Biochemicals; death receptor ligand
- inhibition of secondary tumorsphere formation (in words) [1]: only partially inhibitory
